Measured values reported in patent US8034561B2, “HIN-1, a tumor suppressor gene” (Dana-Farber Cancer Institute, Inc., priority 2001, dated 2011).

Assays:
[1] = test system: breast cancer cell lines with no detectable expression of hHIN-1; experiment: Effect of DNA methyltransferase inhibitor on hHIN-1 mRNA levels (RT-PCR); assay type: cell-based, human; settings: six breast cancer cell lines, 25 μM 5aza-C for three to ten days
From the text: Cell lines and tissue. BT-20, BT-474, BT-549, Hs578T, MCF-7, MDA-MB-231, MDA-MB-468, MDA-MB-435S, SK-BR-3, T47D, UACC-812, UACC-893, and ZR-75-1 breast cancer cell lines were obtained from the American Type Culture Collection (ATCC; Manassas, Va.). SUM-44, SUM-52, SUM-102, SUM149, SUM-159, SUM-185, SUM-190, SUM-225, SUM-229, and SUM-1315 cell lines were a generous gift of Dr. Steve Ethier (University of Michigan Medical Center). The HCC1937 BRCA1 minus cell line was obtained from Dr. Gail Tomlinson (University of Texas Southwestern Medical Center). The 21MT1, 21MT2, 21NT, and 21PT cell lines were obtained from Dr. Arthur Pardee (Dana-Farber Cancer Institute). Cells were grown in media recommended by the ATCC or by the establishing investigators. However, 48 hours prior to RNA extraction, all cell lines were switched to DMEM/F12 medium supplemented with 5% FBS in order to minimize gene expression differences due to culture conditions. […]
(§1) To test for the consequence of promoter methylation on hHIN-1 expression, the effect of a DNA methyltransferase inhibitor (5-aza-2′-deoxycytidine; “5aza-C”) on hHIN-1 mRNA levels was analyzed. […] The expression of hHIN-1 mRNA was determined by RT-PCR analysis, while the extent of promoter methylation was evaluated by sequence analysis of bisulfite treated genomic DNA.

hHIN-1 promoter region = experiment: Extent of hHIN-1 promoter methylation by sequence analysis of bisulfite treated genomic DNA; assay type: cell-based, human; settings: ZR-75-1 cells treated with 25 μM 5aza-C vs not treated, bisulfite sequencing
From the text: hHIN-1 methylation, loss of heterozygocity and mutation analysis. Searching the draft of the human genome sequence with the hHIN-1 cDNA sequence identified a genomic clone (CTB-36B8) containing the entire hHIN-1 gene, the proximal promoter region of which contained an apparent CpG island. To determine the location of methylated cytosines, genomic DNA was extracted from the cells, bisulfite treated and purified as previously described [Herman et al. (1998) Proc. Natl. Acad. Sci. USA 95:6870-6875]. PCR amplification was performed using the following primers designed to amplify the coding strand (nucleotides −345 to +72) of bisulfite treated DNA: forward primer-5′-[…]-3′ (SEQ ID NO:9) and reverse primer-5′-[…]-3′ (SEQ ID NO:10). […] PCR amplifications were performed as described above; PCR fragments were analyzed on 3% agarose gels.
as §1

[2] = test system: primary human bronchial epithelial cells; experiment: Retinoic acid-induced mucinous differentiation, RT-PCR of hHIN-1, MUC2 and Tgase I mRNA; assay type: cell-based; settings: 1 mM all-trans retinoic acid, 1 to 9 days
Protocol: Primary cultures of human bronchial epithelial cells were purchased from Clonetics (Walkersville, Md.) and were cultured in the presence or absence of 1 mM all-trans retinoic acid essentially as previously described [Koo et al. (1999) Am. J. Respir. Cell Mol. Biol. 20:43-52].
To test this hypothesis, the expression of hHIN-1 mRNA by RT-PCR during retinoic acid-induced mucinous differentiation of primary human bronchial epithelial cells was analyzed (FIG. 13). Primary human bronchial epithelial cells underwent squamous epithelial differentiation and expressed squamous cell markers such as transglutaminase I (Tgase I) in the absence of all-trans retinoic acid (FIG. 13). […] J. Respir. Cell Mol. Biol. 20:43-52]. […] Such expression kinetics are consistent with a role for HIN-1 as an inducer of this process.

BT549 cells = experiment: Colony assay after transfection with pCEP4 expression constructs; assay type: cell-based, human; settings: stable transfectants selected with hygromycin for 2 weeks, crystal violet staining, compared to control pCEP4
From the text: Generation of hHIN-1 mammalian expression constructs and recombinant adenoviruses. […] For the generation of a recombinant adenovirus the hHIN-1 cDNA was PCR amplified and subcloned into the Kpn I-Xho I site of the pAd-Track-CMV adenoviral vector followed by recombination and adenovirus generation using the Ad-Easy™(Quantum Biotechnologies, Montreal, Canada) system [He et al. (1998) Proc. Natl. Acad. Sci. USA 95:2509-2514].
Colony assays, cell cycle analysis and western blot analysis. For colony assay experiments, cells in 100 mm plates were transfected with a mix of 42 μl of FuGene6 (Roche) and 21 μg of the indicated plasmid. 24 hours after transfection, 84% of the cells were plated into 2 T25 tissue culture flasks in medium without a selection drug. Twenty-four hours later the medium was replaced with selection medium containing hygromycin. Colonies were allowed to grow for 2 weeks after which they were visualized by crystal violet staining.
In order to investigate the effect of constitutive hHIN-1 expression on mammary cell growth, a mammalian expression construct containing hHIN-1 polypeptide encoding cDNA (pCEP4-HIN-1) was transfected into various breast cancer cell lines. Stable transfectants were selected in the presence of hygromycin for 2 weeks.

Molecule: Nc1ncn([C@H]2C[C@H](O)[C@@H](CO)O2)c(=O)n1 [5aza-C, 5-aza-2′-deoxycytidine]
- expression of hHIN-1 mRNA [1]: re-expression of hHIN-1 mRNA in all six cell lines
- extent of hHIN-1 promoter methylation (hHIN-1 promoter region): decrease in the extent of promoter methylation

Molecule: CC1=C(/C=C/C(C)=C/C=C/C(C)=C/C(=O)O)C(C)(C)CCC1 [retinoic acid, all-trans retinoic acid]
- expression of hHIN-1 mRNA ([2]; RT-PCR, following retinoic acid treatment): correlated with the loss of a squamous marker (Tgase I) and preceded the induction of a marker for mucinous differentiation (MUC2)
- differentiation phenotype (MUC2 expression) ([2]; air-interface culture): differentiated into mucinous cells

B1: hHIN-1: hHIN-1 polypeptide (SEQ ID NO:1), 104 amino acids, expressed from the pCEP4-HIN-1 mammalian expression construct (protein, listed as Homo sapiens)
chain: MKLAALLGLCVALSCSSARAFLVGSAKPVAQPVAALESAAEAGAGTLANPLGTLNPLKLLLSSLGIPVNHLIEGSQKCVAELGPQAVGAVKALKALLGALTVFG
- colony numbers / cell growth (BT549 cells): dramatic decrease in colony numbers
